Measurements published in patent EP0984975B1, “MULTICYCLIC ERYTHROMYCIN DERIVATIVES” (Abbott Laboratories, priority 1997, dated 1998).

Columns and labels:
Assay in all cases: In vitro assay of antibacterial activity (agar dilution MIC)
Assay type in all cases: cell-based
[1] = tested on: STAPHYLOCOCCUS AUREUS 1775; details: BHI agar, 35-37 °C for 20 to 24 hours, unit assumed
Method: (§1) Representative compounds of the present invention were assayed in vitro for antibacterial activity as follows: Twelve petri dishes containing successive aqueous dilutions of the test compound mixed with 10 mL of sterilized Brain Heart Infusion (BHI) agar (Difco 0418-01-5) were prepared. Each plate was inoculated with 1:100 (or 1:10 for slow-growing strains, such as Micrococcus and Streptococcus) dilutions of up to 32 different microorganisms, using a Steers replicator block. The inoculated plates were incubated at 35-37 °C for 20 to 24 hours. In addition, a control plate, using BHI agar containing no test compound, was prepared and incubated at the beginning and end of each test.
(§2) An additional plate containing a compound having known susceptibility patterns for the organisms being tested and belonging to the same antibiotic class as the test compound was also prepared and incubated as a further control, as well as to provide test-to-test comparability. Erythromycin A was used for this purpose.
(§3) After incubation, each plate was visually inspected. The minimum inhibitory concentration (MIC) was defined as the lowest concentration of drug yielding no growth, a slight haze, or sparsely isolated colonies on the inoculum spot as compared to the growth control.

M[…] ATCC 9341 = details: BHI agar, 35-37 °C for 20 to 24 hours, unit assumed
Method: as §1, §2, §3

[2] = tested on: STAPHYLOCOCCUS EPIDERMIDIS 3519; details: unit assumed
Method: as §1, §2, §3

M[…] ATCC 4698 = details: BHI agar, 35-37 °C for 20 to 24 hours, unit assumed
Method: as §1, §2, §3

N. ASTEROIDES ATCC 9970 = details: BHI agar, 35-37 °C for 20 to 24 hours, unit assumed
Method: as §1, §2, §3

ESCHERICHIA COLI DC-2 = details: BHI agar, 35-37 °C for 20 to 24 hours, unit assumed
Method: as §1, §2, §3

ESCHERICHIA COLI JUHL = details: unit assumed
Method: as §1, §2, §3

CANDIDA ALBICANS CCH 442 = details: BHI agar, 35-37 °C for 20 to 24 hours, unit assumed
Method: as §1, §2, §3

[3] = tested on: STAPHYLOCOCCUS AUREUS ATCC 6538P; details: BHI agar, 35-37 °C for 20 to 24 hours, unit assumed
Method: as §1, §2, §3

EN[…] ATCC 8043 = details: BHI agar, 35-37 °C for 20 to 24 hours, unit assumed
Method: as §1, §2, §3

[4] = tested on: STAPHYLOCOCCUS AUREUS A5177; details: BHI agar, 35-37 °C for 20 to 24 hours, unit assumed
Method: as §1, §2, §3

[5] = tested on: STREPTOCOCCUS BOVIS A-5169; details: BHI agar, 35-37 °C for 20 to 24 hours, unit assumed
Method: as §1, §2, §3

ESCHERICHIA COLI SS = details: unit assumed
Method: as §1, §2, §3

[6] = tested on: STAPHYLOCOCCUS AUREUS CMX 642A; details: BHI agar, 35-37 °C for 20 to 24 hours, unit assumed
Method: as §1, §2, §3

[7] = tested on: STREPTOCOCCUS PYOGENES EES61; details: BHI agar, 35-37 °C for 20 to 24 hours, unit assumed
Method: as §1, §2, §3

[8] = tested on: STAPHYLOCOCCUS AUREUS NCTC10649M; details: BHI agar, 35-37 °C for 20 to 24 hours, unit assumed
Method: as §1, §2, §3

[9] = tested on: STREPTOCOCCUS PYOGENES PIU 2548; details: BHI agar, 35-37 °C for 20 to 24 hours, unit assumed
Method: as §1, §2, §3

[10] = tested on: STAPHYLOCOCCUS AUREUS A-5278; details: BHI agar, 35-37 °C for 20 to 24 hours, unit assumed
Method: as §1, §2, §3

[11] = tested on: STREPTOCOCCUS PYOGENES 930; details: BHI agar, 35-37 °C for 20 to 24 hours, unit assumed
Method: as §1, §2, §3

[12] = tested on: STAPHYLOCOCCUS AUREUS CMX 553; details: BHI agar, 35-37 °C for 20 to 24 hours, unit assumed
Method: as §1, §2, §3

STR[…] 508 = details: BHI agar, 35-37 °C for 20 to 24 hours, unit assumed
Method: as §1, §2, §3

[13] = tested on: MYCOBACTERIUM SMEGMATIS ATCC 114; details: BHI agar, 35-37 °C for 20 to 24 hours, unit assumed
Method: as §1, §2, §3

[14] = STAPHYLOCOCCUS EPIDERMIDIS 3519, BHI agar, 35-37 °C for 20 to 24 hours
[15] = ESCHERICHIA COLI JUHL, BHI agar, 35-37 °C for 20 to 24 hours
[16] = ESCHERICHIA COLI SS, BHI agar, 35-37 °C for 20 to 24 hours
[17] = STREPTOCOCCUS PYOGENES PIU 2548
[18] = STREPTOCOCCUS AGALACTIAE CMX 508
[19] = MYCOBACTERIUM SMEGMATIS ATCC 114

Structure (SMILES)	Antibacterial Activity (MIC's) [1]	Antibacterial Activity (MIC's) (M[…] ATCC 9341; MICROCOCCUS LUTEUS ATCC 9341)	Antibacterial Activity (MIC's) (M[…] ATCC 4698; MICROCOCCUS LUTEUS ATCC 4698)	Antibacterial Activity (MIC's) (N. ASTEROIDES ATCC 9970)	Antibacterial Activity (MIC's) (ESCHERICHIA COLI DC-2)	Antibacterial Activity (MIC's) (ESCHERICHIA COLI JUHL; [15])	Antibacterial Activity (MIC's) (CANDIDA ALBICANS CCH 442)	Antibacterial Activity (MIC's) [3]	Antibacterial Activity (MIC's) [4]	Antibacterial Activity (MIC's) ([5]; STREPTOCOCCUS BOVIS A-5169)	Antibacterial Activity (MIC's) (ESCHERICHIA COLI SS; [16])	Antibacterial Activity (MIC's) [6]	Antibacterial Activity (MIC's) ([7]; STREPTOCOCCUS PYOGENES EES61)	Antibacterial Activity (MIC's) [8]	Antibacterial Activity (MIC's) [9, 17]	Antibacterial Activity (MIC's) [10]	Antibacterial Activity (MIC's) ([11]; STREPTOCOCCUS PYOGENES 930)	Antibacterial Activity (MIC's) [12]	Antibacterial Activity (MIC's) (STR[…] 508; [18])	Antibacterial Activity (MIC's) [13, 19]	also measured
CC[C@H]1OC(=O)[C@H](C)C(=O)[C@H](C)[C@@H](O[C@@H]2O[C@H](C)C[C@H](N(C)C)[C@H]2O)[C@](C)(OC)C[C@@H](C)C2Nc3ccccc3N3C(=O)O[C@@]1(C)[C@H]3[C@H]2C (single isomer, unassigned) [Ex 3, Compound of Formula (I): R^1 is methoxy; R^2 is H, R^3 is H, the double bond is absent, A, B, D and E are H, and Y and Z taken together with the atom to which they are attached form an oxo group]	> 100 µg/mL	3.1 µg/mL	25 µg/mL	6.2 µg/mL	> 100 µg/mL	> 100 µg/mL	> 100 µg/mL	25 µg/mL	25 µg/mL	1.56 µg/mL	100 µg/mL	50 µg/mL	3.1 µg/mL	50 µg/mL	25 µg/mL	> 100 µg/mL	> 100 µg/mL	50 µg/mL	3.1 µg/mL	50 µg/mL	Antibacterial Activity (MIC's) [2, 14]: 50 µg/mL; Antibacterial Activity (MIC's) (EN[…] ATCC 8043; ENTEROCOCCUS FAECIUM ATCC 8043): 12.5 µg/mL
CC[C@H]1OC(=O)[C@H](C)[C@@H](O[C@H]2C[C@@](C)(OC)[C@@H](O)[C@H](C)O2)[C@H](C)[C@@H](O[C@@H]2O[C@H](C)C[C@H](N(C)C)[C@H]2O)[C@](C)(O)C[C@@H](C)C(=O)[C@H](C)[C@@H](O)[C@]1(C)O [Ery A, Erythromycin A, reference compound]	> 100 µg/mL	–	–	0.1 µg/mL	100 µg/mL	–	> 100 µg/mL	0.2 µg/mL	3.1 µg/mL	–	–	0.39 µg/mL	–	0.39 µg/mL	–	> 100 µg/mL	–	0.39 µg/mL	–	–	Antibacterial Activity (MIC's) (M[…] ATCC 9341; M[…] ATCC 9341): 0.02 µg/mL; Antibacterial Activity (MIC's) [2]: 0.2 µg/mL; Antibacterial Activity (MIC's) (M[…] ATCC 4698; M[…] ATCC 4698): 0.39 µg/mL; Antibacterial Activity (MIC's) (ESCHERICHIA COLI JUHL): 50 µg/mL; Antibacterial Activity (MIC's) (EN[…] ATCC 8043; EN[…] ATCC 8043): 0.1 µg/mL; Antibacterial Activity (MIC's) ([5]; STR[…] A-5169): 0.01 µg/mL; Antibacterial Activity (MIC's) (ESCHERICHIA COLI SS): 0.39 µg/mL; Antibacterial Activity (MIC's) ([7]; STR[…] EES61): 0.02 µg/mL; Antibacterial Activity (MIC's) ([9]; STR[…] PIU 2548): 3.1 µg/mL; Antibacterial Activity (MIC's) ([11]; STR[…] 930): > 100 µg/mL; Antibacterial Activity (MIC's) (STR[…] 508; STR[…] 508): 0.02 µg/mL; Antibacterial Activity (MIC's) ([13]; MYC[…] ATCC 114): 1.56 µg/mL
CC[C@H]1OC(=O)[C@H](C)C(=O)[C@H](C)[C@@H](O[C@@H]2O[C@H](C)C[C@H](N(C)C)[C@H]2O)[C@](C)(OC)C[C@@H](C)C2=Nc3cc(C)ccc3N3C(=O)O[C@@]1(C)[C@H]3[C@H]2C [Ex 4, Compound of Formula (I): R^1 is methoxy; R^2 is H, R^3 is absent, the double bond is present, A, B, and E are H, D is methyl, and Y and Z taken together with the atom to which they are attached form an oxo group]	–	0.1 µg/mL	0.2 µg/mL	0.1 µg/mL	> 100 µg/mL	> 100 µg/mL	> 100 µg/mL	0.78 µg/mL	0.78 µg/mL	0.01 µg/mL	0.2 µg/mL	0.78 µg/mL	0.01 µg/mL	0.78 µg/mL	0.2 µg/mL	> 100 µg/mL	> 100 µg/mL	–	0.01 µg/mL	100 µg/mL	–
CC[C@H]1OC(=O)[C@H](C)C(=O)[C@H](C)[C@@H](O[C@@H]2O[C@H](C)C[C@H](N(C)C)[C@H]2O)[C@](C)(OC)C[C@@H](C)C2=Nc3cc(C#N)ccc3N3C(=O)O[C@@]1(C)[C@H]3[C@H]2C [Ex 6, Compound of Formula (I): R^1 is methoxy; R^2 is H, R^3 is absent, the double bond is present, A, B, and E are H, D is cyano and Y and Z taken together with the atom to which they are attached form an oxo group]	> 100 µg/mL	0.05 µg/mL	0.39 µg/mL	0.39 µg/mL	> 100 µg/mL	> 100 µg/mL	> 100 µg/mL	0.39 µg/mL	–	0.01 µg/mL	3.1 µg/mL	0.39 µg/mL	0.01 µg/mL	0.39 µg/mL	0.39 µg/mL	> 100 µg/mL	> 100 µg/mL	0.39 µg/mL	0.05 µg/mL	0.1 µg/mL	Antibacterial Activity (MIC's) [2, 14]: 0.2 µg/mL; Antibacterial Activity (MIC's) (EN[…] ATCC 8043; ENTEROCOCCUS FAECIUM ATCC 8043): 0.05 µg/mL
